The subject of test [1] is human neutrophils. Nature of the test: IL-8 induced neutrophil chemotaxis. In kind it is cell-based. The conditions noted are these: for IC50: IL-8 (2 nM). The protocol:
(§1) Freshly isolated healthy human neutrophils were isolated and utilized. The neutrophils were treated with IL-8 at 2 nM or fMLP at 100 nM to induced chemotaxis.
(§2) FIGS. 7A and 7B display the percentage of inhibition of 2 nm of IL-8 induced chemotaxis at different compound concentrations of Compound 3 as compared to Navarixin (comparative). FIGS. 7C and 7D display the percentage of inhibition of 100 nm fMLP induced chemotaxis at different compound concentrations of Compound 3 as compared to HCH6-1 (comparative). Table 3 below provides the IC50 values for each stimulus, providing a comparative measure of the compounds' efficacy.

The test system of test [2] is mice. The experiment in a line: Imiquimod (IMQ) psoriasis mouse model. In kind it is in vivo. To be noted: 30 mpk P.O., BID, 5% imiquimod, Day 0 to Day 7. The protocol: From Day 0 to Day 7, 5% w/w of imiquimod (IMQ) in water was administered to the mice by PO to induce psoriasis. From Day 0 to Day 7, mice were treated with Compound 1, clobetasol, or dexamethasone. At Day 7, the mice were euthanized.
FIGS. 10A and 10B illustrate the effect of Compound 1 at 30 mpk (P.O., BID) as compared to naive control, vehicle control, 0.05% clobetasol, and dexamethasone at 1 mpk (P.O., QD) on psoriasis in a mouse model. The graphs show the changes in ear thickness and Psoriasis Area and Severity Index (PASI) score over time.

Test [3] deals with mice. The experiment in a line: MC903-induced atopic dermatitis mouse model (Example 11). In kind it is in vivo. The conditions noted are these: 3, 10, 30 mpk PO, BID, MC903, Day 14. The protocol: From Day 1 to Day 14, 2 nmol in 100% ethanol, 50 μl/mouse/back skin (MC903) was administered every other day to mice to induce atopic dermatitis. From Day 1 to Day 14, mice were treated with Compound 1 or clobetasol. At Day 14, the mice were euthanized.
FIGS. 11A-11C illustrate the effects of Compound 1 at 3 mpk, 10 mpk, and 30 mpk (PO, BID) as compared to normal control, vehicle control, and 0.05% clobetasol (topical, QD) (comparative) on atopic dermatitis in a mouse model.

Test [4] relates to mice. The experiment in a line: DSS mouse model of colitis. In kind it is in vivo. The conditions noted are these: 30 mpk, 2% DSS, Day 8. The protocol: From Day-3 to Day 8, mice were treated with Compound 1, fingolimod, or mesalamine. From Day-3 to Day 0, mice were randomized and acclimated to their environment while assessing a disease activity index (DAI). At Day 1, 2% w/w of DSS in water was administered to the mice by PO. From Day 1 to Day 7, DAI continued to be assessed. At Day 8, the mice were euthanized post the final dose of Compound 1, fingolimod, or mesalamine.
FIGS. 8A-8D present the efficacy of Compound 1 at 30 mpk as compared to vehicle control, DSS control, fingolimod at 1 mpk (comparative), and mesalamine at 50 mpk (comparative) in a DSS mouse model of colitis. The graphs show the effect of Compound 1 on disease activity index, stool consistency, rectal bleeding index, and combined histopathology.

In test [5] the test system is mice. Nature of the test: Chlorhexidine gluconate-induced peritoneal fibrosis model. The conditions noted are these: 10, 30, 100 mpk, 0.1% CG, Day 22. In kind it is in vivo, mouse. The method, then:
From Day 1 to Day 21, 0.1% w/w of chlorhexidine gluconate (CG) in water was administered, every other day, to the mice by PO to induce peritoneal fibrosis. From Day 1 to Day 21, mice were treated with Compound 1 or an inhibitor of TGFβ receptor I (ALK5) (SB525334). At Day 22, the mice were euthanized.
FIGS. 9A and 9B illustrate the effect of Compound 1 at 10, mpk, 30, mpk, and 100 mpk as compared to sham control, 0.1% chlorhexidine gluconate (CG) and vehicle, and an inhibitor of TGFβ receptor I (ALK5) (SB525334) at 30 mpk (comparative), and mesalamine at 50 mpk (comparative) on average peritoneal thickness and α-SMA expression in a mouse model of peritoneal fibrosis.

Test [6] relates to mice. The experiment in a line: Bleomycin-induced pulmonary fibrosis model, prophylactic and treatment groups (Example 3). In kind it is in vivo, mouse. The protocol: Prophylactic group (P): At Day 0, prophylactic treatment of mice (P) with Compound 1 or pirfenidone by PO was performed. From Day 0 to Day 20, the prophylactically treated mice (P) were intratracheally instilled with bleomycin. At Day 21, the mice (P) were euthanized.
Treatment group (T): Likewise, from Day 0 to Day 7, naïve mice (T) were intratracheally instilled with bleomycin. At Day 7, the naïve mice were treated with Compound 1. Bleomycin instillation continued to Day 20. At Day 21, the mice (T) were euthanized.
FIGS. 2A-2D and FIGS. 3A-3G illustrate the therapeutic effects of Compound 1 at 10 mpk (P), 30 mpk (P), 100 mpk (P), and 100 mpk (T), as compared to a normal control, treatment-free control (bleomycin), and pirfenidone (comparative) at 100 mpk (P) in a bleomycin-induced model of pulmonary fibrosis.

For test [7], the system named is human neutrophils. The experiment in a line: fMLP induced neutrophil chemotaxis. In kind it is cell-based. To be noted: for IC50: fMLP (100 nM), Donor 1. The protocol:
as §1, §2

Test [8] concerns mice. The experiment in a line: Bleomycin-induced inflammation and cell counts, 10 days (Example 5). In kind it is in vivo, mouse. To be noted: 3, 10, 30 mpk PO, Day 10. The method, then:
At Day 0, prophylactic treatment of mice with Compound 3 or pirfenidone by PO was performed. From Day 0 to Day 9, the prophylactically treated mice were intratracheally instilled with bleomycin. At Day 10, the mice were euthanized.
As shown in FIGS. 5A-5G, the impact of Compound 3 at 3 mpk, 10 mpk, and 30 mpk as compared to normal control, treatment-free control (bleomycin), and pirfenidone (comparative) at 100 mpk on various cell counts associated with inflammation was evaluated. The bar graphs compare alveolar macrophage counts, neutrophil counts, lymphocyte counts, inflammation score, eotaxin (BALF), INFγ (lung), and IL-6 (lung).

In test [9] the test system is mice. Nature of the test: LPS-induced acute lung injury model (Example 4). In kind it is in vivo, mouse. The conditions noted are these: 30 mpk PO, aerosolized LPS 1 mg/mL, 4 hours. The protocol: At time point −1 hour, prophylactic treatment of mice by PO with Compound 3 or dexamethasone was performed. From time point −0.5 hours to 0 hours, neutrophil activation was induced with aerosolized LPS at 1 mg/mL. At timepoint 4 hours, blood, BALF, and lung tissue were harvested.
FIGS. 4A-4G present the effects of Compound 3 at 30 mpk as compared to naive control, treatment-free control (LPS), and dexamethasone (comparative) at 5 mpk on inflammatory cytokines in a lipopolysaccharide (LPS)-induced acute lung injury model. The bar graphs compare the levels of TNF-α, IL-6, IL-36γ, Total cell count (BALF), neutrophils (BALF), neutrophils (blood), and eosinophils (BALF), MIP-2.

Test [10] has as its system human precision-cut lung slices. Nature of the test: Inflammation and fibrosis biomarkers in human precision-cut lung slices. In kind it is cell-based. To be noted: 5 μM and 50 uM, hPCLS. The protocol: Cryopreserved human precision-cut lung slices (hPCLS) were prepared and used to analyze biomarkers in inflammatory and fibrotic models. Information of the donors that provided the hPCLS is provided below.
FIGS. 6A-6D illustrate the dose-dependent impact of Compound 3 at 5 μM and 50 uM as compared to vehicle control, nintedanib at 2.5 μM (comparative), and pirfenidone at 2.5 uM (comparative) on biomarkers associated with inflammation and fibrosis in human pulmonary cells.

The subject of test [11] is mice. Nature of the test: Bleomycin-induced pulmonary fibrosis model, prophylactic, 21 days (Example 2). In kind it is in vivo, mouse. The conditions noted are these: PO, Day 21. The method, then:
At Day 0, prophylactic treatment of mice with Compound 3 or pirfenidone by PO was performed. From Day 0 to Day 20, the prophylactically treated mice were intratracheally instilled with bleomycin. At Day 21, the mice were euthanized.
As depicted in FIGS. 1A-1F, a series of bar graphs illustrate the reduction in fibrotic symptoms in a bleomycin-induced pulmonary fibrosis model upon treatment with Compound 3 at 1 mpk, 3 mpk, 10 mpk, and 100 mpk as compared to a normal control, treatment-free control (bleomycin), and pirfenidone (comparative) at 100 mpk. Parameters such as collagen deposition, collagen accumulation, collagen fiber formation, inflammatory cytokine expression, and inflammatory cell infiltration were measured.

Where [12] appears, read: 10, 30, 100 mpk (P) and 100 mpk (T), bleomycin.

Non-standard residues stand in square brackets, D forms with d. Residues, ends and D or L forms follow the SMILES beside them. *: point of attachment. Bz = O=C(c1ccccc1)*

For `CC[C@@H](Nc1c(Nc2cccc(C(=O)N(C)C)c2O)c(=O)c1=O)c1ccc(C)o1` [Navarixin, reference compound], the IC50 turned out to be 2360 nM in test [1] (All donors), 1230 nM in [1] (Donor 1), 2690 nM in test [1] (Donor 2) and 3160 nM in [1] (Donor 3).
For `C[C@@]1(C#N)[C@H](O)CC[C@]2(C)[C@@H]1CC[C@@]1(C)O[C@H](C3=CCOC3=O)C[C@@H]21` [Compound 1, (2S,3aR,5aS,6R,7R,9aR,9bS)-7-hydroxy-3a,6,9a-trimethyl-2-(2-oxo-2,5-dihydrofuran-3-yl) dodecahydronaphtho[2,1-b]furan-6-carbonitrile], in test [2], the skin condition entry was “improvements in skin condition” and the “symptoms (ear thickness, PASI score)” value is “reduction in symptoms”. In addition, in [3], the dermatitis severity entry is “decrease in dermatitis severity” and the skin thickness result is reported as “decrease”. In addition, the “symptoms of colitis, such as weight loss and increased disease severity” value in test [4] is “effectively mitigate the symptoms of colitis”. In addition, in test [5], the average peritoneal thickness entry is given as “reduction” and the α-SMA expression result is “reduction”. Further, in test [6] (setting [12]), the Ashcroft score result is reported as “lower the Ashcroft score”, the hydroxyproline content result is reported as “reduce hydroxyproline content” and the “inflammatory cell infiltration in lung tissue” value is given as “decrease inflammatory cell infiltration”. Besides, in test [6] (H&E staining, 100× magnification, compared to control), the “fibrosis and lung tissue morphology (histology)” value was “reduced fibrosis and improved lung tissue morphology”.
With `COC(=O)[C@@H](Cc1ccccc1)NC(=O)[C@H](Cc1c[nH]c2ccccc12)NC(=O)c1ccccc1` [HCH6-1, reference compound] (Bz-Trp-[dF]-OMe), half-maximal inhibition in [7] (IC50) was put at 452 nM.
Consider `C[C@@]12CCC(=O)N[C@@](C)(C#N)[C@H]1CC[C@@]1(C)O[C@H](C3=CCOC3=O)C[C@@H]21` [Compound 3, (2S,3aR,5aS,6R,10aR,10bS)-3a,6,10a-trimethyl-8-oxo-2-(2-oxo-2,5-dihydrofuran-3-yl) dodecahydro-2H-benzofuro[5,4-c]azepine-6-carbonitrile], for which the “inflammation and cell counts” value in test [8] was “reduction in inflammation and cell counts”. Further, the cytokine levels entry in [9] is reported as “dose-dependent reduction in cytokine levels”. In test [7] (Homo sapiens, Neutrophil), the IC50 stood at 798 nM. Further, the “inhibition of neutrophil chemotaxis” value in test [7] (induced by fMLP at 100 nM) is reported as “concentration-dependent inhibition”. In [1] (Homo sapiens, Neutrophil, All donors), this molecule registered an IC50 of 2060 nM. Moreover, the concentration for half-maximal inhibition (IC50) in test [1] (Homo sapiens, Neutrophil, Donor 1) was found to be 1410 nM. This molecule also came in with an IC50 in test [1] (Homo sapiens, Neutrophil, Donor 2) of 3160 nM. Moreover, the IC50 in [1] (Homo sapiens, Neutrophil, Donor 3) came to 1620 nM. The “inhibition of neutrophil chemotaxis” value in [1] (induced by IL-8 at 2 nM) was “concentration-dependent inhibition”. In [10], the IL-6 level entry is reported as “corresponding decrease”, the IL-8/CXCL8 level result is “corresponding decrease” and the MCP-1/CCL-2 level entry is given as “corresponding decrease”. In addition, in test [11], the collagen accumulation result is recorded as “notable decrease”, the collagen deposition result is recorded as “notable decrease”, the collagen fiber formation entry is listed as “notable decrease” and the inflammatory cell infiltration result is given as “notable decrease”. Besides, the inflammatory cytokine expression result in test [11] is “notable decrease”.

What is called IC50 is the concentration at which inhibition is half-maximal. A high value points to weaker potency.

These data come from patent US20260365662A1, “ISOANDROGRAPHOLIDE ANALOGS AND METHOD FOR TREATMENT USING THE SAME” (Enveda Therapeutics, Inc., priority 2023, published 2026).
